Experimental findings from publication PMC6302903, “Protein and Chemical Determinants of BL-1249 Action and Selectivity for K2P Channels” (ACS Chemical Neuroscience, 2018) are described below.

Converted amounts (≈) assume the structure as drawn.

The target in data set [1] is T1, K2P18.1(TRESK) (Mus musculus, UniProt Q6VV64).
T1 construct: expressed in transfected cells; host or cells: Xenopus laevis oocytes (mRNA injection, pGEMHE/pMO)
Nature of the data set: TEVC of K2P18.1(TRESK) in Xenopus oocytes. The format is cell-based. The note with it: concentrations up to the solubility limit (∼80 μM). The protocol: BL-1249 activates K2P2.1(TREK-1)[18],[40] and K2P10.1(TREK-2),[7] but its effects on other K2P channels have not been characterized. […] In order to test if the original 10 μM assay had missed BL-1249 effects in other K2P channels, we tested concentrations of BL-1249 up to the solubility limit (∼80 μM) against the other K2P subfamily representatives. […]
(§1) Xenopus laevis oocytes were harvested in accordance with UCSF IACUC protocol AN129690 and digested in calcium-free ND-96 (96 mM NaCl, 2 mM KCl, 3.8 mM MgCl2) immediately following harvest, as previously described.[6],[10] […] Defolliculated stage V–VI oocytes were injected with 0.2–6.0 ng of mRNA in 50 nL, and currents were recorded 24–48 h after injection. mRNA was synthesized from plasmid DNA using mMessage mMachine Kit (T7 promoter, Ambion, Life Technologies) and purified using RNEasy Kit (Qiagen). […] Once stabilized basal currents were recorded, compounds were perfused at various concentrations in standard ND96 and currents were allowed to increase to stabilization before recording final current. Fold activation upon compound application is expressed as I/I0 (0 mV), derived from the current at 0 mV in the presence of compound divided by the basal current at 0 mV in standard ND96 without compound. Data were analyzed and plotted using Graphpad Prism Version 5 (GraphPad Software, San Diego California USA, www.graphpad.com). […]

Data set [2] can be described thus: BL-1249 solubility limit in recording solution. It is filed as physicochemical. The note with it: standard ND96 recording solution. Here is the method:
BL-1249 activates K2P2.1(TREK-1)[18],[40] and K2P10.1(TREK-2),[7] but its effects on other K2P channels have not been characterized. […] In order to test if the original 10 μM assay had missed BL-1249 effects in other K2P channels, we tested concentrations of BL-1249 up to the solubility limit (∼80 μM) against the other K2P subfamily representatives.

The target of data set [3] is TREK-1/AAK_T (Mus musculus, UniProt P97438). In words: TEVC of C-terminal tail swap chimera TREK-1/AAK_T. The format is cell-based. The note with it: Xenopus oocytes.
Description: Given the importance of the C-terminal tail for the BL-1249 response and the fact that the C-terminal tails of K2P2.1(TREK-1) and K2P4.1(TRAAK) vary substantially (17.6% sequence similarity, 13.5% identity), we wondered if these differences could contribute to the different potencies observed in K2P2.1(TREK-1) and K2P4.1(TRAAK) BL-1249 responses. To test this possibility, we made chimeras that swapped the C-terminal tail between K2P2.1(TREK-1) and K2P4.1(TRAAK), TREK-1/AAK_T and TRAAK/EK_T. […] Despite this modest change, it is clear that the C-terminal tail alone is not sufficient to endow the K2P4.1(TRAAK) core with a K2P2.1(TREK-1)-like BL-1249 response. […]
as §1, with “current.” for “current. Fold activation upon compound application is expressed as I/I0 (0 mV), derived from the current at 0 mV in the presence of compound divided by the basal current at 0 mV in standard ND96 without compound. Data were analyzed and plotted using Graphpad Prism Version 5 (GraphPad Software, San Diego California USA, www.graphpad.com).”

Sequence of TREK-1/AAK_T (P97438 1-292 isoform P97438-2 limits assumed): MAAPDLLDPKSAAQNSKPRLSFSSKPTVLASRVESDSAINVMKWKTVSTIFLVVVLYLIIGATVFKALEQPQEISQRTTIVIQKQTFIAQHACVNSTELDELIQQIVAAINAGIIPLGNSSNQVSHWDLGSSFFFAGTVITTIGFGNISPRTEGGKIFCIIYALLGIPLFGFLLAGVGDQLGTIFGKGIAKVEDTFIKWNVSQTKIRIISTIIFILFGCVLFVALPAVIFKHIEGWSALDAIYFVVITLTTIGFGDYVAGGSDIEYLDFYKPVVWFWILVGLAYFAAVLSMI
T1 sequence (Q6VV64 whole entry): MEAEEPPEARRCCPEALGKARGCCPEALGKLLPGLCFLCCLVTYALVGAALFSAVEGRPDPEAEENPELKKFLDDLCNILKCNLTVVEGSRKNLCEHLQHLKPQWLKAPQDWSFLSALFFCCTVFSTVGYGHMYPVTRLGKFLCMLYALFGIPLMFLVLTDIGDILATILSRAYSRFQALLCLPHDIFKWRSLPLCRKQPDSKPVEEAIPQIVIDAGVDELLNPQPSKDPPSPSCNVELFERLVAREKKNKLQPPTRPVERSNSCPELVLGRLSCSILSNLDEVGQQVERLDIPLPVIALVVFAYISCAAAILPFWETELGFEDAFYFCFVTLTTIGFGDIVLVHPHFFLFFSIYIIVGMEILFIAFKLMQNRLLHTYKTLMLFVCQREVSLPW

In general, solubility refers to the concentration that dissolves in the medium under given conditions. High values mean much dissolved substance, low ones little dissolved substance. As usually defined, the EC50 is the concentration that produces a half-maximal response. A high value points to a need for much substance. `c1ccc(-c2nnn[nH]2)c(Nc2cccc3c2CCCC3)c1` [BL-1249, (5,6,7,8-tetrahydro-naphthalen-1-yl)-[2-(1H-tetrazol-5-yl)-phenyl]-amine]: the “activation of K2P18.1(TRESK)” value in data set [1] is “failed to find evidence for activation”. The compound also yielded a solubility in data set [2] of roughly 80 µM (≈ 23.3 µg/mL). The 50% effective concentration (EC50) in data set [3] worked out at 7.7 ± 0.6 µM.
